Data as given in patent publication US10227357B2, “Compounds and methods for kinase modulation, and indications therefor” (Plexxikon Inc., priority 2012, dated 2019).

Each molecule was assayed against T1, c-kit mutant D816V (Homo sapiens, UniProt P10721, D816V/DEL694-753) (assay: c-Kit mutant D816V biochemical assay, AlphaScreen). Settings: c-kit D816V biochemical inhibitory activity; read-out: Biochemical activity (IC50 μM) Kit D816V.
T1 construct: residues 551-934, kinase insertion domain residues 694-753 deleted; 6x-histidine (N); made in house; host or cells: E. coli Arctic Express (DE3) RIL (Stratagene)
T1 sequence (P10721 with tags, fused parts or gaps DEL694-753/D816V): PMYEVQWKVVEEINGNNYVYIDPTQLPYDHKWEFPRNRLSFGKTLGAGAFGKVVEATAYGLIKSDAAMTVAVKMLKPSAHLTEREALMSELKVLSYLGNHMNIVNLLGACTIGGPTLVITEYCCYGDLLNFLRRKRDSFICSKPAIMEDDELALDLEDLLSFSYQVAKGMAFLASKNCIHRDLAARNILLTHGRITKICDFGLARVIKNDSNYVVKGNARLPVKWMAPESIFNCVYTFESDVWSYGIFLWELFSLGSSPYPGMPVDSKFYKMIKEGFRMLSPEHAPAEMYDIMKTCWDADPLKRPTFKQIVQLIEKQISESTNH
Procedure, shortened: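 Eight-point, threefold compound series incubated 30 min at room temperature with E. coli-produced D816V kinase, 10 μM ATP, Mg2+/Mn2+ HEPES buffer pH 7.2 and 5% DMSO. After EDTA stop, streptavidin and anti-phosphotyrosine (PY20) AlphaScreen beads gave the read-out, and IC50 was fitted from the concentration–signal curve.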

Compared with `CC1(C)C=C(c2cc3c(N4CCC(NS(=O)(=O)c5ccc(OC(F)(F)F)cc5)CC4)ncnc3[nH]2)CC(C)(C)O1` [P-0663, N-[1-[6-(2,2,6,6-tetramethyl-3H-pyran-4-yl)-7H-pyrrolo[2,3-d]pyrimidin-4-yl]-4-piperidyl]-4-(trifluoromethoxy)benzenesulfonamide], `COc1cc(-c2cc3c(N4CCC(NS(=O)(=O)c5ccc(Cl)cc5)CC4)ncnc3[nH]2)ccn1` [P-0666, 4-chloro-N-[1-[6-(2-methoxy-4-pyridyl)-7H-pyrrolo[2,3-d]pyrimidin-4-yl]-4-piperidyl]benzenesulfonamide] is lower in IC50: 10 to 200 µM for the first, 0.0001 to 1 µM for the second.

Compared with `C[C@H](NC(=O)N1CCN(c2ncnc3ccsc23)CC1(C)C)c1cccc(Cl)c1` [P-0677, N-[(1S)-1-(3-chlorophenyl)ethyl]-2,2-dimethyl-4-thieno[3,2-d]pyrimidin-4-yl-piperazine-1-carboxamide], `C[C@H](NC(=O)N1CCN(c2ncnc3[nH]c(-c4ccc(C#N)cc4)cc23)CC1(C)C)c1ccc(Cl)cc1` [P-0686, N-[(1S)-1-(4-chlorophenyl)ethyl]-4-[6-(4-cyanophenyl)-7H-pyrrolo[2,3-d]pyrimidin-4-yl]-2,2-dimethyl-piperazine-1-carboxamide] is higher in IC50: 1 to 10 µM for the first, 10 to 200 µM for the second.

First: CC(C)(NC(=O)N1CCN(c2ncnc3cc(-c4ccc(F)cc4)sc23)CC1(C)C)c1ccccc1 [P-0678, 4-[6-(4-fluorophenyl)thieno[3,2-d]pyrimidin-4-yl]-2,2-dimethyl-N-(1-methyl-1-phenyl-ethyl)piperazine-1-carboxamide]
Second: Cc1ccc(C(C)NC(=O)N2CCN(c3ncnc4cc(-c5ccc(F)cc5)sc34)CC2)s1 (stereo not drawn) [P-0703, 4-[6-(4-fluorophenyl)thieno[3,2-d]pyrimidin-4-yl]-N-[1-(5-methyl-2-thienyl)ethyl]piperazine-1-carboxamide]
The IC50 of the first is higher: 1 to 10 µM for the first, 0.0001 to 1 µM for the second.

Compared with `C[C@H](NC(=O)N1CCN(c2ncnc3[nH]c(-c4ccc(C#N)cc4)cc23)CC1(C)C)c1ccc(F)cc1` [P-0685, 4-[6-(4-cyanophenyl)-7H-pyrrolo[2,3-d]pyrimidin-4-yl]-N-[(1S)-1-(4-fluorophenyl)ethyl]-2,2-dimethyl-piperazine-1-carboxamide], `C[C@H](NC(=O)N1CCN(c2ncnc3[nH]c(-c4ccc(C#N)cc4)cc23)CC1)c1ccc(F)cc1` [P-0696, 4-[6-(4-cyanophenyl)-7H-pyrrolo[2,3-d]pyrimidin-4-yl]-N-[(1S)-1-(4-fluorophenyl)ethyl]piperazine-1-carboxamide] is lower in IC50: 1 to 10 µM for the first, 0.0001 to 1 µM for the second.

`C[C@H](NC(=O)N1CCN(c2ncnc3[nH]c(-c4ccc(C#N)cc4)cc23)C[C@H]1C)c1cccc(F)c1` [P-0693, (2R)-4-[6-(4-cyanophenyl)-7H-pyrrolo[2,3-d]pyrimidin-4-yl]-N-[(1S)-1-(3-fluorophenyl)ethyl]-2-methyl-piperazine-1-carboxamide] and `C[C@H](NC(=O)N1CCN(c2ncnc3[nH]c(-c4ccc(C#N)cc4)cc23)C[C@H]1C)c1cccc(OC(F)F)c1` [P-0699, (2R)-4-[6-(4-cyanophenyl)-7H-pyrrolo[2,3-d]pyrimidin-4-yl]-N-[(1S)-1-[3-(difluoromethoxy)phenyl]ethyl]-2-methyl-piperazine-1-carboxamide] fall in the same range of IC50: 0.0001 to 1 µM for the first, 0.0001 to 1 µM for the second.

`C[C@H](NC(=O)N1CCN(c2ncnc3[nH]c(-c4ccc(C#N)cc4)cc23)CC1(C)C)c1cccc(OC(F)F)c1` [P-0698, 4-[6-(4-cyanophenyl)-7H-pyrrolo[2,3-d]pyrimidin-4-yl]-N-[(1S)-1-[3-(difluoromethoxy)phenyl]ethyl]-2,2-dimethyl-piperazine-1-carboxamide] and `C[C@H](NC(=O)N1CCN(c2ncnc3[nH]c(-c4ccc(C#N)cc4)cc23)CC1)c1ccc(Cl)cc1` [P-0702, N-[(1S)-1-(4-chlorophenyl)ethyl]-4-[6-(4-cyanophenyl)-7H-pyrrolo[2,3-d]pyrimidin-4-yl]piperazine-1-carboxamide] fall in the same range of IC50: 0.0001 to 1 µM for the first, 0.0001 to 1 µM for the second.

`C[C@H](NC(=O)N1CCN(c2ncnc3[nH]c(-c4ccc(F)cc4)cc23)C[C@H]1C)c1cccc(Cl)c1` [P-0701, (2R)-N-[(1S)-1-(3-chlorophenyl)ethyl]-4-[6-(4-fluorophenyl)-7H-pyrrolo[2,3-d]pyrimidin-4-yl]-2-methyl-piperazine-1-carboxamide] and `COc1cc(-c2cc3c(N4CCN(C(=O)N[C@@H](C)c5cccc(Cl)c5)[C@H](C)C4)ncnc3[nH]2)ccn1` [P-0711, (2R)-N-[(1S)-1-(3-chlorophenyl)ethyl]-4-[6-(2-methoxy-4-pyridyl)-7H-pyrrolo[2,3-d]pyrimidin-4-yl]-2-methyl-piperazine-1-carboxamide] fall in the same range of IC50: 0.0001 to 1 µM for the first, 0.0001 to 1 µM for the second.

`Cc1nn(C)cc1-c1cc2ncnc(N3CC4CCC3CN4C(=O)N[C@H](C)c3ccc(F)cc3)c2s1` (stereo partly drawn) [P-0704, 5-[6-(1,3-dimethylpyrazol-4-yl)thieno[3,2-d]pyrimidin-4-yl]-N-[(1R)-1-(4-fluorophenyl)ethyl]-2,5-diazabicyclo[2.2.2]octane-2-carboxamide] and `Cc1ccc([C@H](C)NC(=O)N2CCN(c3ncnc4[nH]c(-c5ccc(F)cc5)cc34)CC2)cc1` [P-0713, 4-[6-(4-fluorophenyl)-7H-pyrrolo[2,3-d]pyrimidin-4-yl]-N-[(1S)-1-(p-tolyl)ethyl]piperazine-1-carboxamide] fall in the same range of IC50: 0.0001 to 1 µM for the first, 0.0001 to 1 µM for the second.

These molecules were tested against T2, c-kit kinase (Homo sapiens, UniProt P10721) (assay: c-Kit biochemical assay, AlphaScreen, 10 μM ATP). Settings: c-kit biochemical inhibitory activity; read-out: Biochemical activity (IC50 μM) Kit.
T2 construct: The c-kit (or kinase domain thereof) is an active kinase in AlphaScreen; poly-Histidine tag (in-house protein only) (cleaved yes); host or cells: E. coli BL21(DE3)RIL, co-expressed with PTP1B
T2 sequence (P10721 26-976): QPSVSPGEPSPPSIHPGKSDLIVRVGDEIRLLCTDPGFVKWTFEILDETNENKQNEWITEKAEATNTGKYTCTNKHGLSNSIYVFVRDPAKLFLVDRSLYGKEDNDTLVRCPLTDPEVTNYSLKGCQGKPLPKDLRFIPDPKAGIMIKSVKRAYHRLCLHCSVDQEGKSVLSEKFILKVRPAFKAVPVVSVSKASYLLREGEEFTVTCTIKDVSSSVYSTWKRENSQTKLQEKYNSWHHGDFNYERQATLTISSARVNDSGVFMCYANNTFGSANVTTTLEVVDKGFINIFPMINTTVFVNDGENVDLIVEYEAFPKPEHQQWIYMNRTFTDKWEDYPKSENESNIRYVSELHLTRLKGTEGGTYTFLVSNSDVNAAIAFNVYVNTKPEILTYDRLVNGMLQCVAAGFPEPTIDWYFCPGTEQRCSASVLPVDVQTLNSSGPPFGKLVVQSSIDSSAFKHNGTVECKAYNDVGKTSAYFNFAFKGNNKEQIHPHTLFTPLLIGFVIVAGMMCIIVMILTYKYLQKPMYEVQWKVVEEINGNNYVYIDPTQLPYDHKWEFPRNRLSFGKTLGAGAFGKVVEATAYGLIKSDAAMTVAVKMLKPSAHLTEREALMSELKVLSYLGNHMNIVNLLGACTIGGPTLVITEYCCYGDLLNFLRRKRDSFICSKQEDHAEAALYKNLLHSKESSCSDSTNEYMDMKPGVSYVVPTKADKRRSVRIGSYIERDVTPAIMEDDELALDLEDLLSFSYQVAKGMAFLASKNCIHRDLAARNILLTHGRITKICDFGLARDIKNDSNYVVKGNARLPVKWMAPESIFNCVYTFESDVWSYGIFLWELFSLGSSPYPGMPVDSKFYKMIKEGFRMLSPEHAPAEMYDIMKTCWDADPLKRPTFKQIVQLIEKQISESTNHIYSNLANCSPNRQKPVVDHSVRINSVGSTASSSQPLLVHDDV
Protocol: IC50 values are determined with respect to inhibition of c-Kit kinase activity, where inhibition of phosphorylation of a peptide substrate is measured as a function of compound concentration. Compounds to be tested were dissolved in DMSO to a concentration of 20 mM. These were diluted 30 μl into 120 μl of DMSO (4 mM) and 1 μl was added to an assay plate. These were then serially diluted 1:3 (50 μl to 100 μl DMSO) for a total of 8 points. Plates were prepared such that each kinase reaction is 20 μl in 1× kinase buffer (50 mM HEPES, pH 7.2, 5 mM MgCl2, 5 mM MnCl2, 0.01% NP-40, 0.2% BSA), 5% DMSO and 10 μM ATP. […] C-kit kinase was at 0.1 ng per sample. After incubation of the kinase reaction for 1 hour at room temperature, 5 μl of donor beads (Streptavidin coated beads (Perkin Elmer Life Science) final concentration 1 μg/ml) in stop buffer (50 mM EDTA in 1× kinase buffer) was added, the sample was mixed and incubated for 20 minutes at room temperature before adding 5 μl of acceptor beads (PY20 coated beads (Perkin Elmer Life Science) final concentration 1 μg/ml) in stop buffer. The samples were incubated for 60 minutes at room temperature and the signal per well was read on AlphaQuest reader. […] The signal vs. compound concentration was used to determine the IC50.
Complementary DNA cloned from various human tissues were purchased from Invitrogen, and these were used as substrates in the PCR reactions. Specific custom synthetic oligonucleotide primers were designed to initiate the PCR product, and also to provide the appropriate restriction enzyme cleavage sites for ligation with the plasmids. The entire sequence encoding the enzyme was made through a gene synthesis procedure, using custom synthetic oligonucleotides covering the entire coding sequence (Invitrogen, see below).
The plasmid used for ligation with the kinase-encoding inserts was derivative of pET (Novagen) for expression using E. coli. The Kit kinase was engineered to include a Histidine tag for purification using metal affinity chromatography. The kinase-encoding plasmid was engineered as bicistronic mRNA to co-express a second protein that modifies the kinase protein during its expression in the host cell. Protein tyrosine phosphatase 1B (PTP), was co-expressed for dephosphorylation of the phospho-Tyrosines.
For protein expression, the plasmid containing the Kit gene was transformed into E. coli strains BL21(DE3)RIL and transformants selected for growth on LB agar plates containing appropriate antibiotics. Single colonies were grown overnight at 37° C. in 200 ml TB (Terrific broth) media. 16×1 L of fresh TB media in 2.8 L flasks were inoculated with 10 ml of overnight culture and grown with constant shaking at 37° C. Once cultures reached an absorbance of 1.0 at 600 nm, IPTG was added and cultures were allowed to grow for a further 12 to 18 hrs at temperatures ranging from 12-30° C. Cells were harvested by centrifugation and pellets frozen at […] until ready for lysis.
For protein Purification; frozen E. coli cell pellets were resuspended in lysis buffer and lysed using standard mechanical methods. Protein was purified via poly-Histidine tags using immobilized metal affinity purification IMAC. The Kit kinase was purified using a 3 step purification process utilizing; IMAC, size exclusion chromatography and ion exchange chromatography. The poly-Histidine tag was removed using Thrombin (Calbiochem).

First: C[C@H]1CN(c2ncnc3[nH]c(-c4ccncc4)cc23)CCN1C(=O)Nc1ccc(OC(F)(F)F)cc1 [P-0043, (2S)-2-methyl-4-[6-(4-pyridyl)-7H-pyrrolo[2,3-d]pyrimidin-4-yl]-N-[4-(trifluoromethoxy)phenyl]piperazine-1-carboxamide]
Second: C[C@H]1CN(c2ncnc3[nH]c(-c4ccncc4)cc23)CCN1C(=O)Nc1ccc(N(C)C)cc1 [P-0046, (2S)-N-(4-dimethylaminophenyl)-2-methyl-4-[6-(4-pyridyl)-7H-pyrrolo[2,3-d]pyrimidin-4-yl]piperazine-1-carboxamide]
The IC50 of the first is lower: 0.0001 to 1 µM for the first, 1 to 10 µM for the second. The first is the more potent here.

First: CN(C)c1ccc(NC(=O)N2CCN(c3ncnc4[nH]ccc34)CC2)cc1 [P-0132, N-(4-dimethylaminophenyl)-4-(7H-pyrrolo[2,3-d]pyrimidin-4-yl)piperazine-1-carboxamide]
Second: O=C(Nc1ccc(F)c(F)c1)N1CCN(c2ncnc3[nH]ccc23)CC1 [P-0175, N-(3,4-difluorophenyl)-4-(7H-pyrrolo[2,3-d]pyrimidin-4-yl)piperazine-1-carboxamide]
The IC50 of the first is lower: 1 to 10 µM for the first, 10 to 200 µM for the second. The first is the more potent here.

`N#Cc1c[nH]c2ncnc(N3CCN(C(=O)NCc4ccc(F)cc4)CC3)c12` [P-0158, 4-(5-cyano-7H-pyrrolo[2,3-d]pyrimidin-4-yl)-N-[(4-fluorophenyl)methyl]piperazine-1-carboxamide] and `O=C(NCc1ccc(C(F)(F)F)nc1)N1CCN(c2ncnc3[nH]c(-c4ccc(Cl)cc4)cc23)CC1` [P-0180, 4-[6-(4-chlorophenyl)-7H-pyrrolo[2,3-d]pyrimidin-4-yl]-N-[[6-(trifluoromethyl)-3-pyridyl]methyl]piperazine-1-carboxamide] fall in the same range of IC50: 10 to 200 µM for the first, 10 to 200 µM for the second.

`COc1ccc(NC(=O)N2CCN(c3ncnc4[nH]ccc34)CC2)cc1OC` [P-0173, N-(3,4-dimethoxyphenyl)-4-(7H-pyrrolo[2,3-d]pyrimidin-4-yl)piperazine-1-carboxamide] and `C[C@H](NC(=O)N1CCN(c2ncnc3[nH]c(-c4ccc(F)cc4)cc23)CC1)c1ccc(Cl)cc1` [P-0178, N-[(1S)-1-(4-chlorophenyl)ethyl]-4-[6-(4-fluorophenyl)-7H-pyrrolo[2,3-d]pyrimidin-4-yl]piperazine-1-carboxamide] fall in the same range of IC50: 10 to 200 µM for the first, 10 to 200 µM for the second.
